How the values were obtained:
[1] = Particle size of lipid particles (no nucleic acid); format: physicochemical; details: lipid particles without nucleic acid; compound/DSPC/cholesterol/DMG-PEG2000 molar ratio 50/10/38.5/1.5; ELS-Z2
Method: The compounds described in Examples 1, 9, and 10,1,2-distearoyl-sn-glycero-3-phosphocholine (trade name: COATSOME® MC-8080; NOF corporation), cholesterol (trade name: Cholesterol HP; NIPPON FINE CHEMICAL CO., LTD.), and 1,2-dimyristoyl-rac-glycero-3-(methylpolyoxyethylene 2000) (hereinafter, called DMG-PEG2000) (trade name: SUNBRIGHT® GM-020; NOF corporation) were dissolved in ethanol at a molar ratio of 50/10/38.5/1.5 such that the total lipid concentration became 20 mmol/L, thereby obtaining an oil phase.
A 10 mmol/L acetate buffer having a pH of 4 was used as a water phase and mixed with the oil phase by a micromixer (see JP5288254B) using a syringe pump such that the volume ratio of water phase:oil phase became 6.7:3.3. The mixed solution was diluted 2× with a phosphate buffered saline (PBS), thereby obtaining a dispersion liquid of lipid particles. The dispersion liquid was dialyzed using a dialysis cassette (Slide-A-Lyzer G2, MWCO: 10 kD, Thermo Fisher Scientific) including PBS such that ethanol was removed, thereby obtaining lipid particles containing the compounds described in Examples 1, 9, and 10.
By using the dispersion liquid of lipid particles as it was, the particle size of the lipid particles was measured using a zeta potential/particle size measurement system ELS-Z2 (Otsuka Electronics Co., Ltd.).

[2] = Particle size of nucleic acid lipid particles (Luc2-siRNA); format: physicochemical; details: compound/DSPC/cholesterol/DMG-PEG2000 50/10/38.5/1.5
How it was run: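 Particle size was read by ELS-Z2 light scattering on nucleic acid lipid particles after dialysis against PBS. These were made by micromixing Luc2-siRNA (19.7 μmol/L, pH 4 acetate) with ethanolic lipids (test lipid/DSPC/cholesterol/DMG-PEG2000 50/10/38.5/1.5, 20 mmol/L) at 3:1 water:oil, siRNA/lipid 339 mol/mol.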

[3] = Encapsulation rate of siRNA in nucleic acid lipid particles (Luc2-siRNA); format: physicochemical; details: compound/DSPC/cholesterol/DMG-PEG2000 50/10/38.5/1.5
How it was run: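 Encapsulation rate was calculated as (total − outer-phase siRNA)/total ×100. Total siRNA was quantified spectrophotometrically after lipid-dissolving ethanol precipitation, and unencapsulated siRNA by RiboGreen in TE (ex 485/em 535 nm). The particles were test lipid/DSPC/cholesterol/DMG-PEG2000 at 50/10/38.5/1.5, formed by microfluidic mixing with Luc2-siRNA at pH 4 and dialyzed against PBS.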

[4] = test system: DMS273 cells constantly expressing Luc; assay: Target reporter protein (Luc) knockdown in cell, reporter protein assay; format: cell-based; details: Homo sapiens, DMS-273; Luc2-siRNA lipid particles using the compound; siRNA 0.1 to 100 nmol/L; concentration at which Luc expression is knocked down to 50%; read-out: IC50
How it was run: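 Nucleic acid lipid particles added at final 0.1 to 100 nmol/L to DMS273 human SCLC cells stably expressing Luc2, 24 hr exposure then 24 hr further culture after medium change. Luc quantified by Steady Glo luminescence after viable cell count; knockdown efficiency calculated and IC50 taken as concentration giving 50% Luc reduction.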

[5] = test system: Factor VII (FVII) protein; assay: Measurement of Factor VII (FVII) protein in mouse plasma after FVII-siRNA lipid particles; format: in vivo, C57BL6/J mice; details: 0.1 mg/kg caudal vein, plasma 24 hours after administration, PBS group = 100%
How it was run: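 C57BL6/J mice (n=3) received FVII-siRNA nucleic acid lipid particles at 0.1 mg/kg into the tail vein; controls got PBS. Each value is the percentage of the PBS-group FVII level.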

[6] = Particle size of nucleic acid lipid particles (FVII-siRNA); format: physicochemical
How it was run: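 Lipid particles formed by micromixing ethanolic ionizable lipid/DSPC/cholesterol/DMG-PEG2000 (50/10/38.5/1.5 mol) with siRNA in pH 4 acetate buffer (3:1 water:oil), diluted with PBS and dialysed against PBS.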

[7] = Nucleic acid encapsulation rate of nucleic acid lipid particles (FVII-siRNA); format: physicochemical
How it was run: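 Total nucleic acid was measured by adding 30 μL of 3 mol/L sodium acetate and 9 μL of glycogen to 60 μL of FVII-siRNA lipid particles, then precipitating with 1.5 mL ethanol, centrifuging, air-drying, redissolving in water, and reading on a Nanodrop. Outer-phase nucleic acid came from a RiboGreen assay (ex 485 nm, em 535 nm) on samples diluted 10,000× in 1×TE. Encapsulation (%) = (total − outer)/total × 100.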

CCCCCCCCCCCCCCCCN(CCCCCCCCCCCCCCCC)C(=O)OCCN(C)CCN(C)C [Example 10, 2-((2-(Dimethylamino)ethyl)(methyl)amino)ethyl dihexadecylcarbamate]
Particle size (nm) [1]: 111.2 nm | Particle size (nm) [2]: 159.9 nm | Nucleic acid encapsulation rate [3]: 80%

CCCCC/C=C\C/C=C\CCCCCCCCN(CCCCCCCC/C=C\C/C=C\CCCCC)C(=O)OCCNCCN [Example 9, 2-((2-aminoethyl)amino)ethyl di((9Z,12Z)-octadeca-9,12-dien-1-yl)carbamate]
Particle size (nm) [1]: 127.5 nm | Particle size (nm) [2]: 79.5 nm | Nucleic acid encapsulation rate [3]: 92% | IC50 [4]: 0.021 µM

CCCCC/C=C\C/C=C\CCCCCCCCN(CCCCCCCC/C=C\C/C=C\CCCCC)C(=O)OCCN(C)CCN(C)C [Example 1, 2-((2-(dimethylamino)ethyl)(methyl)amino)ethyl di((9Z,12Z)-octadeca-9,12-dien-1-yl)carbamate]
Particle size (nm) [1]: 145.9 nm | Particle size (nm) [2]: 66.4 nm | Nucleic acid encapsulation rate [3]: 84% | IC50 [4]: 0.013 µM

CCCCC/C=C\C/C=C\CCCCCCCCC(CCCCCCCC/C=C\C/C=C\CCCCC)OC(=O)OCCN(CCC)CCN(C)C [Example 31, 2-((2-(Dimethylamino)ethyl)(propyl)amino)ethyl((6Z,9Z,28Z,31Z)-heptatriaconta-6,9,28,31-tetraen-19-yl)carbonate]
Particle size (nm) [2]: 67.9 nm | Nucleic acid encapsulation rate [3]: 78% | IC50 [4]: 0.038 µM | Relative amount of FVII protein (%) [5]: 14% | Particle size (nm) [6]: 73.5 nm | Nucleic acid encapsulation rate [7]: 80%

CCCCCCCCCCC(CCCCCCCCCCC(=O)OCC(CCCC)CCCCCC)OC(=O)OCCN(CC)CCN(CC)CC (centres unmarked) [Example 66, 2-Butyloctyl 12-decyl-3,6-diethyl-10-oxo-9,11-dioxa-3,6-diazatricosan-23-oate]
Particle size (nm) [2]: 69.8 nm | Nucleic acid encapsulation rate [3]: 73% | IC50 [4]: 0.028 µM | Relative amount of FVII protein (%) [5]: 17% | Particle size (nm) [6]: 85.4 nm | Nucleic acid encapsulation rate [7]: 98%

CCCCCCCCC(=O)OCCN(CCOC(=O)OC(CCCCCC)CCCCCCCCC(=O)OCC(CCCC)CCCCCC)CCN(CC)CC (centres unmarked) [Example 103, 2-Butyloctyl 3-ethyl-12-hexyl-6-(2-(nonanoyloxy)ethyl)-10-oxo-9,11-dioxa-3,6-diazahenicosan-21-oate]
Particle size (nm) [2]: 64.3 nm | Nucleic acid encapsulation rate [3]: 80% | IC50 [4]: 0.014 µM | Relative amount of FVII protein (%) [5]: 2% | Particle size (nm) [6]: 69.8 nm | Nucleic acid encapsulation rate [7]: 79%

CCCCCCCCCCC(CCCCCCCCC(=O)OCC(CCCC)CCCCCC)OC(=O)OCCN(CC)CCN(CC)CC (centres unmarked) [Example 68, 2-Butyloctyl 12-decyl-3,6-diethyl-10-oxo-9,11-dioxa-3,6-diazahenicosan-21-oate]
Particle size (nm) [2]: 70.7 nm | Nucleic acid encapsulation rate [3]: 97% | IC50 [4]: 0.037 µM | Relative amount of FVII protein (%) [5]: 9% | Particle size (nm) [6]: 84.5 nm | Nucleic acid encapsulation rate [7]: 91%

CCCCC/C=C\C/C=C\CCCCCCCCC(CCCCCCCC/C=C\C/C=C\CCCCC)OC(=O)OCCN(C)CCN(CC)CC [Example 23, 2-((2-(Diethylamino)ethyl)(methyl)amino)ethyl((6Z,9Z,28Z,31Z)-heptatriaconta-6,9,28,31-tetraen-19-yl)carbonate]
Particle size (nm) [2]: 69.2 nm | Nucleic acid encapsulation rate [3]: 85% | IC50 [4]: 0.039 µM | Relative amount of FVII protein (%) [5]: 39% | Particle size (nm) [6]: 75.4 nm | Nucleic acid encapsulation rate [7]: 57%

CCCCCCCCC(CCCCCC)COC(=O)CCCCCCC(CCCCCC)OC(=O)OCCN(CCN(CC)CC)C(C)C (centres unmarked) [Example 94, 2-Hexyldecyl 3-ethyl-12-hexyl-6-isopropyl-10-oxo-9,11-dioxa-3,6-diazanonadecan-19-oate]
Particle size (nm) [2]: 72.7 nm | Nucleic acid encapsulation rate [3]: 76% | IC50 [4]: 0.039 µM | Relative amount of FVII protein (%) [5]: 8% | Particle size (nm) [6]: 86.1 nm | Nucleic acid encapsulation rate [7]: 75%

CCCCCCCC(=O)OCCN(CCOC(=O)OC(CCCCCC)CCCCCCCCC(=O)OCC(CCCC)CCCCCC)CCN(CC)CC (centres unmarked) [Example 88, 2-Butyloctyl 3-ethyl-12-hexyl-6-(2-(octanoyloxy)ethyl)-10-oxo-9,11-dioxa-3,6-diazahenicosan-21-oate]
Particle size (nm) [2]: 74.6 nm | Nucleic acid encapsulation rate [3]: 81% | IC50 [4]: 0.023 µM | Relative amount of FVII protein (%) [5]: 2% | Particle size (nm) [6]: 78.7 nm | Nucleic acid encapsulation rate [7]: 83%

CCCCCCCCCC(=O)OCCN(CCOC(=O)OC(CCCCCC)CCCC(=O)OCC(CCCCCC)CCCCCCCC)CCN(CC)CC (centres unmarked) [Example 110, 2-Hexyldecyl 6-(2-(decanoyloxy)ethyl)-3-ethyl-12-hexyl-10-oxo-9,11-dioxa-3,6-diazahexadecan-16-oate]
Particle size (nm) [2]: 60.7 nm | Nucleic acid encapsulation rate [3]: 87% | IC50 [4]: 0.017 µM | Relative amount of FVII protein (%) [5]: 2% | Particle size (nm) [6]: 66.1 nm | Nucleic acid encapsulation rate [7]: 85%

From US12370143B2, “Compound or salt thereof and lipid particles” (FUJIFILM Corporation, priority 2018, dated 2025)
